Counter-ions that a name gives are not always drawn.
What was measured:
HeLa = assay: Antiproliferative activity against human HeLa cells assessed as inhibition of cell growth incubated for 72 hrs by MTT assay; type: functional, cell-based
[1] = test system: Trypanosoma brucei rhodesiense; assay: Antitrypanosomal activity against blood stream form of Trypanosoma brucei rhodesiense IL-1501 assessed as growth inhibition incubated for 69 hrs by alamar blue staining based microplate fluorescence scanner analysis; type: functional, organism-based; conditions: IL-1501, 69 h

Row | SMILES | IC50 (HeLa) [µM] | IC50 [1] [µM]
1 | CC(=O)O[C@H]1C[C@](C)(O)C(=O)/C=C(\O)[C@](C)(O)CCC/C(C)=C/C=C\1C(C)C | > 30 | 3.4
2 | C/C1=C\C=C(\C(C)C)[C@@H](O)C[C@](C)(O)C(=O)CC/C(C)=C/CC1 | > 30 | 10
3 | COc1cccc2c1C(=O)c1c(O)c3c(c(O)c1C2=O)C[C@@](O)(C(=O)CO)C[C@@H]3O[C@H]1C[C@H](N)[C@H](O)[C@H](C)O1 [DOXORUBICIN HYDROCHLORIDE] | 0.5 | –

Reference: ChEMBL document CHEMBL5385921, “Kagimminols A and B, Cembrene-Type Diterpenes from an Okeania sp. Marine Cyanobacterium” (J Nat Prod, 2024)
